Results published in paper doi:10.1101/2025.04.10.648175v1 (biorxiv, 2025).

Assays:
AzoTag16 = test: isothermal titration calorimetry; assay type: binding; settings: 20 mM HEPES-NaOH, 150 mM NaCl, pH 7.5, 25 °C, 0.8% DMSO; one-site model
AzoTag1 = test: isothermal titration calorimetry; assay type: binding; settings: 20 mM HEPES-NaOH, 150 mM NaCl, pH 7.5, 25 °C, 0.5% DMSO; one-site model

| Kd (AzoTag16) [nM] | Kd (AzoTag1) [nM] | SMILES |
| --- | --- | --- |
| 14.03 ± 0.02 | – | CNC(=O)COCCOCCNC(=O)c1cc(F)c(/N=N\c2c(F)cc(C(=O)NCCC(=O)O)cc2F)c(F)c1 [compound 2, cis-Ca-FAzo] |
| – | 805 ± 22.6 | CCNC(=O)c1cc(F)c(/N=N\c2c(F)cc(C(=O)NCCOCCOCC(=O)NC)cc2F)c(F)c1 [compound 1, cis-Et-FAzo] |
